Measured values: ChEMBL document CHEMBL1201862, “PubChem BioAssay data set” (2004)
Active and inactive are the calls of the source.

Columns and labels:
[1] = Luminescence Cell-Based Dose Response HTS to Identify Inhibitors of Luciferase Translation or Activity in H4-C Neuroglioblastoma Cells. [Related pubchem assays: 1813 (Primary HTS), 1827 (Project Summary)]; format: functional
[2] = Luminescence Cell-Based Dose Response HTS to Identify Activators of Luciferase Translation or Activity in H4-C Neuroglioblastoma Cells. [Related pubchem assays: 1829 (Project Summary), 1814 (Primary HTS)]; format: functional
[3] = inhibitors of firefly luciferase expression or activity, dose response, H4 neuroglioma cells, luminescence (AID 1990); format: functional, cell-based
[4] = Luminescence Cell-Based Dose Retest to Confirm Activators of 5'UTR Stem-Loop Driven Alpha-Synuclein mRNA Translation in H4 Neuroglioblastoma Cells. [Related pubchem assays (depositor defined):AID1813, AID1829]; format: functional
[5] = Luminescence Cell-Based Dose Response HTS to Identify Activators of 5'UTR Stem-Loop Driven Prion Protein mRNA Translation in H4-C Neuroglioblastoma Cells. [Related pubchem assays: 1829 (Project Summary), 1814 (Primary HTS)]; format: functional
[6] = Luminescence Cell-Based Dose HTS Response to Identify Inhibitors of 5'UTR Stem-Loop Driven Prion Protein mRNA Translation in H4-C Neuroglioblastoma Cells. [Related pubchem assays (depositor defined):AID1814, AID1827]; format: functional
BJ [7] = experiment: cytotoxicity toward BJ-TERT fibroblasts, dose response, cell-based, RAS-independent, luminescence (AID 1933); format: functional; settings: Homo sapiens
[8] = Luminescence Cell-Based Dose Response HTS to Identify Inhibitors of 5'UTR Stem-Loop Driven Prion Protein mRNA Translation in H4 Neuroglioblastoma Cells. [Related pubchem assays: 1827 (Project Summary), 1813 (Primary HTS)]; format: functional
[9] = inhibitors of SNCA 5'UTR-driven reporter translation, confirmation, H4 neuroglioma cells, luminescence (AID 1988); format: functional, cell-based
BJ [10] = experiment: cells; format: functional, cell-based; settings: Homo sapiens
[11] = Luminescence Cell-Based Dose Confirmation HTS to Identify Inhibitors of 5'UTR Stem-Loop Driven Alpha-Synuclein mRNA Translation in H4 Neuroglioblastoma Cells. [Related pubchem assays: 1827 (Project Summary), 1813 (Primary HTS)]; format: functional
BJ [12] = experiment: cytotoxicity toward BJ-TERT-LT-ST fibroblasts, dose response, cell-based, RAS-independent, luminescence (AID 1935); format: functional; settings: Homo sapiens;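 further: BJ fibroblasts immortalized with TERT plus LT and ST oncogenes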
[13] = cytotoxicity toward DRD oncogenic fibroblasts, dose response, cell-based, non-viral oncogenic, luminescence (AID 1934); format: functional; settings: Homo sapiens
Beta-lactamase [14] = biological target: Beta-lactamase (Pseudomonas aeruginosa, UniProt Q79MP6);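 further: biochemical dose-response test of metallo-beta-lactamase enzyme inhibition, read out by epi-absorbance; purified recombinant IMP-1 metallo-beta-lactamase with nitrocefin as substrate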
Beta-lactamase [15] = biological target: Beta-lactamase (Salmonella choleraesuis (strain SC-B67), UniProt Q5J463)
ORF 73 = ORF 73 (Human herpesvirus 8, UniProt O40947); experiment: inhibitors of C-LANA binding to LBS DNA, dose response, biochemical, fluorescence polarization, cherry-picked samples (AID 504725); set-up: species or system Human gammaherpesvirus 8;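 further: fluorescence polarization of a labeled DNA duplex reporting LANA DNA binding; potency is for inhibitors that block LANA binding to the DNA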
[16] = fluorescence interference artefacts, compound only, dose response, artefact control for cardiac thin filament activator project, biochemical, no RTF in test wells (AID 504697)
Troponin, cardiac muscle = Troponin, cardiac muscle (Homo sapiens, UniProt P19429+P45379+P63316); experiment: Fluorescence-based biochemical high throughput dose response assay for activators of the calcium sensitivity of cardiac Regulated Thin Filaments (RTF). [Related pubchem assays (depositor defined):AID493008, AID493018, AID504382, AID504383]; format: protein-complex assay
Insulin-degrading enzyme [17] = biological target: T1, Insulin-degrading enzyme (Homo sapiens, UniProt P14735); experiment: activators of recombinant IDE enzyme, dose response, counter-screen for IDE activator project, biochemical, fluorescence polarization (AID 588681)
T1 sequence (P14735 whole entry): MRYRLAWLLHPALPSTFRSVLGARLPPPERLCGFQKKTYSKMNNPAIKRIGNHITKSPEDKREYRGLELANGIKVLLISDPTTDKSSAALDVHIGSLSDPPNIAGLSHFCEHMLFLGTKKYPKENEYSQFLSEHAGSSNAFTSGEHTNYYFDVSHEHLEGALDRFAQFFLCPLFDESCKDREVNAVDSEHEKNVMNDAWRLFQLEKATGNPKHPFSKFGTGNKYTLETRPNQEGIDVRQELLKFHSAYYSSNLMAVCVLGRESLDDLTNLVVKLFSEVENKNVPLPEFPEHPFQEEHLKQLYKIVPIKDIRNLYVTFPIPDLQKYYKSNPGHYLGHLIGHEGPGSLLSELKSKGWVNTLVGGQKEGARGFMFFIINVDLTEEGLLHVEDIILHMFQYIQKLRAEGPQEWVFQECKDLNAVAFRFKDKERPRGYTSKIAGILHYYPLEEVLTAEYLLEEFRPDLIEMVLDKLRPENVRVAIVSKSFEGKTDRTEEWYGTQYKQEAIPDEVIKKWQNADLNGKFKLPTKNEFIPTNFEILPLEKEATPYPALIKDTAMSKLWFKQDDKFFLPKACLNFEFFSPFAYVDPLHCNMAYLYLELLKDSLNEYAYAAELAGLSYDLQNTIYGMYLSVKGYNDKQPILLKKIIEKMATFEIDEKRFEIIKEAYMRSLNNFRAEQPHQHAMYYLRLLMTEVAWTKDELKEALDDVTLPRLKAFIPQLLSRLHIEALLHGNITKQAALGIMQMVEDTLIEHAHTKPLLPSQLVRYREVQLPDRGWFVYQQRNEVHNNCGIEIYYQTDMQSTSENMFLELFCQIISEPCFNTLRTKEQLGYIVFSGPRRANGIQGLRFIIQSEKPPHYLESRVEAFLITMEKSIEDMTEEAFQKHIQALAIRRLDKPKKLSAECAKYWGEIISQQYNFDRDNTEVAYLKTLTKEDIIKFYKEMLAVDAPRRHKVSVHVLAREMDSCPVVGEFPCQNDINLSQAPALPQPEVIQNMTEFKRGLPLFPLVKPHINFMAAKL

Insulin-degrading enzyme [18] = biological target: T1, Insulin-degrading enzyme; experiment: activators of endogenous IDE in HEK cells, dose response, cell-based, fluorescence polarization (AID 588439); format: functional
HEK293 [19] = experiment: HEK cell cytotoxicity by LDH release, dose response, cytotoxicity control for IDE activator project, fluorescence, HEK cells (AID 588440); format: functional, cell-based; settings: Homo sapiens;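 further: cytotoxicity by LDH release measuring loss of membrane integrity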
HEK293 [20] = experiment: optical interference in Abeta FP readout, dose response, artefact control for IDE activator project, biochemical, fluorescence polarization (AID 588442); format: functional, cell-based; settings: Homo sapiens

Chain of Beta-lactamase (Salmonella choleraesuis (strain SC-B67), UniProt Q5J463) (Q5J463 whole entry): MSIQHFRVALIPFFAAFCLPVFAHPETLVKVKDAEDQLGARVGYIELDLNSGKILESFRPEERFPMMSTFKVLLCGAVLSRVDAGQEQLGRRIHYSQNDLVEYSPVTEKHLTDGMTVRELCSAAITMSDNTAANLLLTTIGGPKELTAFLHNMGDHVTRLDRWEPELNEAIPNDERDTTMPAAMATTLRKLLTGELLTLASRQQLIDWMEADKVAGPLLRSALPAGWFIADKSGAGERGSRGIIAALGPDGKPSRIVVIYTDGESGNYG
Chain of Beta-lactamase (Pseudomonas aeruginosa, UniProt Q79MP6) (Q79MP6 whole entry): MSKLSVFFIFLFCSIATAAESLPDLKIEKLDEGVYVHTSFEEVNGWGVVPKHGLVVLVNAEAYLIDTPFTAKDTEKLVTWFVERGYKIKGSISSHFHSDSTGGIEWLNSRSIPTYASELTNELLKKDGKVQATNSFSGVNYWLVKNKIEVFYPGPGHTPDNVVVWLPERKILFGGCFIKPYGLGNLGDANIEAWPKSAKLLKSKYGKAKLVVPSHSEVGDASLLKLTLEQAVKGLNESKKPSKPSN
Chain of ORF 73 (O40947 whole entry): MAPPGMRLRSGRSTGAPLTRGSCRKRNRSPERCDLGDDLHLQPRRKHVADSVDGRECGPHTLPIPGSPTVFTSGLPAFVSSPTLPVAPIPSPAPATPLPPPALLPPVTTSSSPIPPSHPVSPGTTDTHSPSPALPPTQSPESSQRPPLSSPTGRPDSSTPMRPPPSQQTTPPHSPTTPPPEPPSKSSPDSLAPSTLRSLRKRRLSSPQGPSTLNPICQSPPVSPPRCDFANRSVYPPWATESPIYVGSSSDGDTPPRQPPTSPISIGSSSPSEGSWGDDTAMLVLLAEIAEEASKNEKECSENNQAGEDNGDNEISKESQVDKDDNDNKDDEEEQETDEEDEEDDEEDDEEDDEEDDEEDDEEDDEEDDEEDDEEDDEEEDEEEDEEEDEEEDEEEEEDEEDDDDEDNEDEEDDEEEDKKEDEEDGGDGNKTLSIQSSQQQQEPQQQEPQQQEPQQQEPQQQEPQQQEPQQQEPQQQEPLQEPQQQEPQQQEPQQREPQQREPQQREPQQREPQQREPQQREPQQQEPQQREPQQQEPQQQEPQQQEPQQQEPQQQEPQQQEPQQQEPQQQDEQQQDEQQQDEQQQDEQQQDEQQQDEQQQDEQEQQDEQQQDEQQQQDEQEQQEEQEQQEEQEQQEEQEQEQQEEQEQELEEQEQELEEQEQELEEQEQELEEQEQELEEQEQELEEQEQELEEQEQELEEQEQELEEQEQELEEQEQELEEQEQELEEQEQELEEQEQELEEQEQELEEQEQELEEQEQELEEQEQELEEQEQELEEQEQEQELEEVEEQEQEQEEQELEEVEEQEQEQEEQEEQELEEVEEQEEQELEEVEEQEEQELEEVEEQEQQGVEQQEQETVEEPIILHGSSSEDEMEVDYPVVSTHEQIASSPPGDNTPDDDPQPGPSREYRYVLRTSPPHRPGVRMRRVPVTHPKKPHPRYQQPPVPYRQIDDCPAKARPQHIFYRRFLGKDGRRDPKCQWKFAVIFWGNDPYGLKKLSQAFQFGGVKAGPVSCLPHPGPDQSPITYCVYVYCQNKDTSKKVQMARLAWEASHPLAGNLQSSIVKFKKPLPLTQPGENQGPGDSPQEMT

COc1ccc2c(c1)C(C)=CC(C)(C)N2S(=O)(=O)c1ccc(NC(C)=O)cc1
inconclusive: EC50 [2] 2910 nM | EC50 [4] 11600 nM | EC50 [5] 1690 nM | EC50 (BJ [7]) 1890 nM | EC50 (BJ [12]) 7050 nM | EC50 [13] 1060 nM
> 60000 nM (not active): EC50 [8]
active: EC50 [1] 2910 nM | EC50 [3] 14400 nM | EC50 [6] 1690 nM | EC50 [9] 514 nM | EC50 (BJ [10]) 5920 nM | EC50 [11] 11600 nM

CN(C)/C=C1\C=C2C(=O)c3ccccc3N2C1=O
inactive: EC50 (Insulin-degrading enzyme [17]) > 54700 nM | EC50 (Insulin-degrading enzyme [18]) > 54700 nM | IC50 (HEK293 [19]) > 89200 nM | EC50 (HEK293 [20]) > 54700 nM
active: IC50 (Beta-lactamase [14]) 1020 nM | IC50 (Beta-lactamase [15]) 372 nM | AC50 (ORF 73) 51 nM | EC50 [16] > 32.7 nM | EC50 (Troponin, cardiac muscle) > 10.9 nM
